The results in this text go back to PubChem BioAssay (NCI).

Some test systems named below: MCF7 breast; A498 renal; NCI-H522 lung; HS 578T breast; SR leukemia; PC-3 prostate; HOP-92 NSCLC; SK-MEL-2 melanoma; RPMI-8226 leukemia; CAKI-1 renal; BT-549 breast.
Common to all, as to test: NCI-60 cell line screen, 48 h

Where “and” joins values, the source holds several entries; their conditions need not be identical. Equal entries are not always repeated.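 Each compound was tested at five concentrations against cells in 96-well plates for 48 hours. GI50: concentration for 50% inhibition of growth. TGI: concentration producing complete growth inhibition.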

`Cc1ccc(S(=O)(=O)NCCSCCNS(=O)(=O)c2ccc(C)cc2)cc1`: the TGI in the assay with MCF7 breast, in the assay on A498 renal, in the assay with NCI-H522 lung, in the assay on HS 578T breast, with SR leukemia and with PC-3 prostate was above 100 µM in each case. In the assay on HOP-92 NSCLC, this molecule gave a TGI above 100 µM.

As for `Cc1ccc(Oc2ccc(C)cc2[N+](=O)[O-])cc1`, the TGI in the assay with SK-MEL-2 melanoma, in the assay on RPMI-8226 leukemia, in the assay on A498 renal, in the assay with SR leukemia and with HOP-92 NSCLC was above 100 µM throughout.

`O=S(=O)(Sc1ccc(Cl)cc1)c1ccc(Cl)cc1`: the TGI with SK-MEL-2 melanoma is 14.5 µM; in the assay on RPMI-8226 leukemia, 60.5 µM; in the assay on A498 renal it was 34.5 µM; in the assay on CAKI-1 renal, 40.5 µM; with NCI-H522 lung it was 31.1 µM; with SR leukemia, 45 µM. Moreover, the TGI with HOP-92 NSCLC was 42.1 µM.

With `CCOC(=O)/C(Cl)=C(\C)Nc1nc2c(ccc3ccccc32)s1`, the TGI in the assay with SK-MEL-2 melanoma was 60.1 µM; in the assay on MCF7 breast it was above 100 µM; with A498 renal it was above 100 µM; in the assay with CAKI-1 renal, above 100 µM; with NCI-H522 lung, 70.9 µM; in the assay with HS 578T breast, above 100 µM. In addition, the results for the TGI in the assay with SR leukemia, in the assay on BT-549 breast and in the assay on PC-3 prostate were 77.1 µM, above 100 µM and above 100 µM, respectively.

`Cc1cc(NCc2cc(Nc3ccnc4cc(Cl)ccc34)ccc2F)nc(N2CCCC2)n1`: the GI50 in the assay with A498 renal is 1.44 µM; in the assay with CAKI-1 renal it was 1.47 µM; in the assay on HS 578T breast, 1.61 µM; with SR leukemia it was 0.265 µM; in the assay on HOP-92 NSCLC, 0.763 µM. Moreover, the TGI came to 3.32 µM in the assay with A498 renal; 2.98 µM in the assay on CAKI-1 renal; 4.6 µM in the assay on HS 578T breast; 1.12 µM in the assay with SR leukemia; 2.61 µM in the assay on HOP-92 NSCLC.

In the case of `O=c1ccc2cc(O)c(O)cc2o1`, the TGI in the assay on SK-MEL-2 melanoma, in the assay with RPMI-8226 leukemia, in the assay with MCF7 breast, with A498 renal, with CAKI-1 renal and in the assay on NCI-H522 lung was above 100 µM each time. Moreover, the TGI in the assay with HS 578T breast, with SR leukemia, with BT-549 breast, in the assay on PC-3 prostate and in the assay on HOP-92 NSCLC was above 100 µM in each case.

As for `COc1ccc(N2C(=O)C3c4[nH]c5c(C)cccc5c4C4CCC(C(C)(C)C)CC4C3C2=O)cc1` (stereo not given), the TGI in the assay with SK-MEL-2 melanoma, in the assay on RPMI-8226 leukemia, with MCF7 breast, in the assay on A498 renal, with CAKI-1 renal and in the assay on NCI-H522 lung was above 10 µM in each case. The TGI in the assay with HS 578T breast, in the assay on SR leukemia and in the assay with PC-3 prostate was above 10 µM in each case.

`CN(C)CCNc1nc(-c2ccc3ccccc3c2)nc2nc[nH]c12`: the TGI in the assay on SK-MEL-2 melanoma is 28.1 µM; in the assay on RPMI-8226 leukemia it was above 100 µM; in the assay with MCF7 breast it was 20.6 µM; with CAKI-1 renal it was 20.6 µM; in the assay on NCI-H522 lung, 6.22 µM; with HS 578T breast, 22.8 µM. For the same molecule, the TGI in the assay on SR leukemia was 24.7 µM; in the assay with BT-549 breast, 23.4 µM; in the assay on PC-3 prostate, 18.4 µM.

Consider `CC(=O)C(O)N1C(=O)C=CC1=O` (stereo not given), for which the GI50 with RPMI-8226 leukemia is 12.8 µM; with MCF7 breast, 14200 µM; with NCI-H522 lung, > 25 µM and 13.5 µM; with HS 578T breast, 15800 µM; in the assay with PC-3 prostate, 2470 µM. In addition, the TGI with RPMI-8226 leukemia was 35 µM and 5.64 µM; in the assay with MCF7 breast it was > 25 µM and 32900 µM; in the assay on A498 renal it was > 25 µM and 31.3 µM and 39 µM; in the assay on BT-549 breast, 24.8 µM.

For `CC12CCC(C(=O)OC1=O)C(C)(C)O2` (stereo not given), the TGI in the assay with SK-MEL-2 melanoma, with RPMI-8226 leukemia, with MCF7 breast, in the assay on CAKI-1 renal, with NCI-H522 lung and in the assay with HS 578T breast was above 100 µM throughout. The TGI in the assay with BT-549 breast, in the assay with PC-3 prostate and in the assay on HOP-92 NSCLC was above 100 µM each time.

Regarding `NC(=O)NN=C(CS)CS`, the TGI with SK-MEL-2 melanoma was 45.1 µM; with RPMI-8226 leukemia, above 100 µM; in the assay on MCF7 breast it was above 69 µM; in the assay with A498 renal it was 23.4 µM; in the assay with CAKI-1 renal, 42.9 µM; in the assay on NCI-H522 lung, 55.2 µM. The molecule further came in with a TGI with HOP-92 NSCLC of 38.6 µM.

Consider `CN(C)c1ccc(/C=N\NC(=O)CSCC(=O)N/N=C/c2ccc(N(C)C)cc2)cc1`, for which the TGI is above 100 µM in the assay on SK-MEL-2 melanoma; above 100 µM in the assay on RPMI-8226 leukemia; above 100 µM in the assay on MCF7 breast; above 100 µM with CAKI-1 renal; above 100 µM with NCI-H522 lung; 82.1 µM in the assay on HS 578T breast. The TGI in the assay with SR leukemia is above 100 µM; in the assay with BT-549 breast it was 80.4 µM; in the assay on PC-3 prostate it was above 100 µM; in the assay on HOP-92 NSCLC it was above 100 µM.

As for `COc1ccc([C@@H]2ON(C)[C@H]3CN(C)C(=O)[C@@H]23)cc1`, the TGI in the assay on SK-MEL-2 melanoma, with RPMI-8226 leukemia, in the assay on MCF7 breast, in the assay with CAKI-1 renal, in the assay with NCI-H522 lung and in the assay with HS 578T breast was above 100 µM in each case. In addition, the TGI in the assay on SR leukemia, with PC-3 prostate and in the assay with HOP-92 NSCLC was above 100 µM throughout.

Take `CCCCCCCSc1nc2c(C(=O)OCC)ncn2c2ccccc12`: the TGI with SK-MEL-2 melanoma, in the assay with RPMI-8226 leukemia, with SR leukemia and in the assay on HOP-92 NSCLC was above 100 µM throughout.
